18 substances from patent US11591604B2, “Gene expression in Bacteroides” (Massachusetts Institute of Technology, priority 2015, dated 2023) can be followed below.

This data set has as its system NanoLuc. The data set can be described thus: NanoLuc luciferase reporter expression from constitutive promoters and RBSs integrated with pNBU2. The class given is cell-based, B. thetaiotaomicron. To be noted: RBS combined with promoter PBT1311, NanoLuc reporter, three biological replicates. The source says: FIGS. 1A-1G. Genetic parts to control expression in B. thetaiotaomicron. (FIG. 1A) The ranges of gene expression are shown for the different gene regulation systems provided herein. (FIG. 1B) IntN2 catalyzes stable integration of pNBU2-based expression constructs into one of two attBT2 sites in the B. thetaiotaomicron genome. The two attBT2 sites (attBT2-1 at nucleotide (nt) 6,217,227 and attBT2-2 at nt 6,138,320) are in the 3′ ends of tRNA^Ser genes (BT_t71 and BT_t70, respectively). (FIG. 1C) Constitutive promoters and ribosome binding sites for the construction of gene expression libraries. The putative −33 and −7 regions of the PBT1311 promoter, the Shine-Delgarno sequence, and the start codon are indicated by black boxes. Numbers below the black boxes represent nucleotide locations relative the PBT1311 transcription start site. The 26 nt sequences introduced in the PAM promoters are shown (see also FIGS. 6A-6B). Numbers at the edges of the boxes indicate the PBT1311 nucleotides replaced or the insertion site within the promoter. The location of residues randomized in the rpiL* RBS library are indicated with gray arrows (for library A: nt −14, −13, −12; for library B: nt −21, −18, −15; and for library C: nt −17, −16, −11; nt numbering is relative to the translation start site). (FIG. 1D) Activity was measured for a set of constitutive promoters and their cognate RBSs. Furthermore, a set of constitutive promoters (PBT1311, PAM1, PAM2, PAM3, PAM4) was combined with RBSs of varying strengths. Gene expression was measured using a luciferase reporter (NanoLuc). (FIG. 1E) Three large RBS libraries were constructed and combined with promoter PBT1311 to span 10^3-fold in gene expression. For reference, the parent rpiL* RBS is indicated with a black arrow. For D and E, error bars represent the standard deviation of three independent biological replicates made on separate days. (FIG. 1F) The strength of each RBS was compared to the predicted free energy of folding for the mRNA (ΔGfold,). (FIG. 1G) Strong (SEQ ID NO: 210) and weak (SEQ ID NO: 211) consensus sequences for the rpiL* −21 to −11 RBS region targeted by mutagenesis (residue locations are stated relative to the translation start site) are provided. Frequency logos were generated for the 11 strongest and 11 weakest RBSs by comparing the frequency of each nucleotide at each position in that group with the frequency of that nucleotide in that position in the full library. Position −20 and −19 were not randomized and are thus are not shown in the frequency logos.
All genetic parts in this study were characterized using the integration vector pNBU2 to ensure genetic stability of the constructs (FIG. 1B). The pNBU2 plasmid encodes the intN2 tyrosine integrase, which mediates sequence-specific recombination between the attN site of pNBU2 and one of two attBT sites located in the 3′ ends of the two tRNA^Ser genes, BT_t70 and BT_t71, on the B. thetaiotaomicron chromosome (FIG. 1B). Insertion of the pNBU2 plasmid inactivates the tRNA^Ser gene, and simultaneous insertion into both BT_t70 and BT_t71 is unlikely due to the essentiality of tRNA^Ser. pNBU2-based vectors have been used for single-copy complementation in B. thetaiotaomicron in in vitro studies (Koropatkin N M et al. Nat. Rev. Microbiol. 10:323-35, 2012) and in vivo mouse models (Martens E C et al. Cell Host Microbe 4:447-57, 2008).
B. thetaiotaomicron genetic parts were characterized with NanoLuc luciferase (Hall M P et al. ACS Chem. Biol. 7:1848-1857, 2012), which is a small (19 kDa) modified shrimp luciferase. Efforts to use members of the green fluorescent protein family and a FMN-based fluorescent reporter were not successful. NanoLuc oxidizes the exogenously-added substrate furimazine to produce glow-type bioluminescence (Emax=460 nm) with a signal half-life of 2 hr. […]
For orientation: Reporter assays use an easily measured gene product as a stand-in for the process of interest.

For the substance “A35: RBS, SEQ ID NO: 110 (DNA TCCCGCATTTTAAAATAAAATAAATTATTCATTTAGTTAAACGAAT; chemistry not fully specified)”, the “Average Luminescence (RLU/CFU)” value stood at 0.004513 RLU/CFU.

Take “B9: RBS, SEQ ID NO: 10 (DNA TCCCGCATTTTAAAATAAAATAAATTATCTAATTAATTAAACGAAT; chemistry not fully specified)”: the “Average Luminescence (RLU/CFU)” value is 0.04634 RLU/CFU.

Take “C28: RBS, SEQ ID NO: 81 (DNA TCCCGCATTTTAAAATAAAATAAATTATTCATTTATTTAAACGAAT; chemistry not fully specified)”: the “Average Luminescence (RLU/CFU)” value came to 0.009278 RLU/CFU.

On to “A40: RBS, SEQ ID NO: 118 (DNA TCCCGCATTTTAAAATAAAATAAATTATTTGTTTATTTAAACGAAT; chemistry not fully specified)”, for which the “Average Luminescence (RLU/CFU)” value is on record as 0.002992 RLU/CFU.

For the substance “B3: RBS, SEQ ID NO: 3 (DNA TCCCGCATTTTAAAATAAAATAAATAATATAATTAATTAAACGAAT; chemistry not fully specified)”, the “Average Luminescence (RLU/CFU)” value was found to be 0.06083 RLU/CFU.

On to “A34: RBS, SEQ ID NO: 107 (DNA TCCCGCATTTTAAAATAAAATAAATTATTTGTTTACTTAAACGAAT; chemistry not fully specified)”, for which the “Average Luminescence (RLU/CFU)” value is 0.005181 RLU/CFU.

“B5: RBS, SEQ ID NO: 5 (DNA TCCCGCATTTTAAAATAAAATAAATTATATAATTAATTAAACGAAT; chemistry not fully specified)”: the “Average Luminescence (RLU/CFU)” value came to 0.04825 RLU/CFU.

Turning to “C9: RBS, SEQ ID NO: 23 (DNA TCCCGCATTTTAAAATAAAATAAATTATTGCTTTAATTAAACGAAT; chemistry not fully specified)”, the “Average Luminescence (RLU/CFU)” value came out at 0.02988 RLU/CFU.

On to “B34: RBS, SEQ ID NO: 98 (DNA TCCCGCATTTTAAAATAAAATAAATCATCTATTTAATTAAACGAAT; chemistry not fully specified)”, for which the “Average Luminescence (RLU/CFU)” value is listed as 0.00584 RLU/CFU.

In the case of “A36: RBS, SEQ ID NO: 111 (DNA TCCCGCATTTTAAAATAAAATAAATTATTTGTTTAGTTAAACGAAT; chemistry not fully specified)”, the “Average Luminescence (RLU/CFU)” value stood at 0.004309 RLU/CFU.

For the substance “A37: RBS, SEQ ID NO: 113 (DNA TCCCGCATTTTAAAATAAAATAAATTATTTGTTTAATTAAACGAAT; chemistry not fully specified)”, the “Average Luminescence (RLU/CFU)” value came to 0.003964 RLU/CFU.

As to “C27: RBS, SEQ ID NO: 76 (DNA TCCCGCATTTTAAAATAAAATAAATTATTTTTTTAGTTAAACGAAT; chemistry not fully specified)”, the “Average Luminescence (RLU/CFU)” value stood at 0.009752 RLU/CFU.

For “A16: RBS, SEQ ID NO: 65 (DNA TCCCGCATTTTAAAATAAAATAAATTATTTATTTACTTAAACGAAT; chemistry not fully specified)”, the “Average Luminescence (RLU/CFU)” value turned out to be 0.01329 RLU/CFU.

As for “B15: RBS, SEQ ID NO: 27 (DNA TCCCGCATTTTAAAATAAAATAAATGATTTACTTAATTAAACGAAT; chemistry not fully specified)”, the “Average Luminescence (RLU/CFU)” value came out at 0.02695 RLU/CFU.

Turning to “C4: RBS, SEQ ID NO: 16 (DNA TCCCGCATTTTAAAATAAAATAAATTATTTATTTAGTTAAACGAAT; chemistry not fully specified)”, the “Average Luminescence (RLU/CFU)” value was found to be 0.03516 RLU/CFU.

Regarding “A25: RBS, SEQ ID NO: 84 (DNA TCCCGCATTTTAAAATAAAATAAATTATTCCTTTAATTAAACGAAT; chemistry not fully specified)”, the “Average Luminescence (RLU/CFU)” value is 0.008671 RLU/CFU.

“C17: RBS, SEQ ID NO: 45 (DNA TCCCGCATTTTAAAATAAAATAAATTATTAGTTTATTTAAACGAAT; chemistry not fully specified)”: the “Average Luminescence (RLU/CFU)” value was 0.01871 RLU/CFU.

In the case of “C25: RBS, SEQ ID NO: 72 (DNA TCCCGCATTTTAAAATAAAATAAATTATTATTTTACTTAAACGAAT; chemistry not fully specified)”, the “Average Luminescence (RLU/CFU)” value was 0.01148 RLU/CFU.
